“Also recorded” adds a separate entry of the source. Like-named read-outs stand apart in the source and are kept apart here. *1 amine or outer side, *2 acyl side, *3 side chain or, on linkers, in order; H or OH if unused. Where a SMILES comes first, the peptide text is derived from it. Bridges are numbered along the chain shown (N, C = ends). Roman numbers before positions name the chains, in order. [ ]: non-standard residue; d: D form. Actinocin(9to1) = Cc1c2oc3c(C)ccc(C(=O)[*:1])c3nc-2c(C(=O)[*:2])c(N)c1=O; NMeV = CN[C@H](C(=O)O)C(C)C; Sar = CNCC(=O)O
Legend:
[1] = system: RPE1-Venus-Parkin and MDA-MB-231-H2B-mCherry co-culture; test: Intercellular gene transfer in co-culture, flow cytometric analysis; type: cell-based
[2] = system: MDASC43 & RPE1-VEP co-culture; test: 48-hour live cell imaging of CIC structures, MDASC43 co-culture; type: cell-based; details: 10 μM Doxorubicin, 100 μM Hygromycin B; for effect on number/frequency of CIC structures / average duration of CIC structures / time at which CIC structures were concentrated: 20 μM Actinomycin D; for average duration of CIC structures / time at which CIC structures were concentrated: alone or combined
[3] = system: HUVEC and MDA-MB-231-H2B-mCherry co-culture; test: Live cell imaging of CIC structures, HUVEC co-culture; type: cell-based, Human; details: preliminary
F-actin = F-actin stability (Alexa Fluor 594 Phalloidin); type: cell-based; details: co-cultured RPE1-VEP and MDA-MB-231-H2BmCherry
Procedure: Immunofluorescence microscopy was performed as described previously.

[4] = system: MDA-MB-231-H2B-mCherry and RPE1-Venus-Parkin co-culture; test: Cell entrapment (cell-in-cell structure formation), live-cell imaging; details: inhibitor treatment
[5] = compound present in the co-culture, Hygromycin B 100 μM

Cc1c2oc3c(C)ccc(C(=O)N[C@@H]4C(=O)N[C@H](C(C)C)C(=O)N5CCC[C@H]5C(=O)N(C)CC(=O)N(C)[C@@H](C(C)C)C(=O)O[C@@H]4C)c3nc-2c(C(=O)N[C@@H]2C(=O)N[C@H](C(C)C)C(=O)N3CCC[C@H]3C(=O)N(C)CC(=O)N(C)[C@@H](C(C)C)C(=O)O[C@@H]2C)c(N)c1=O [Actinomycin D] (I: T[dV]P[Sar][NMeV] / II: T[dV]P[Sar][NMeV]; ester I:1-I:C, II:1-II:C; linker I:N-II:N via Actinocin(9to1))
effect on gene transfer [1]: prevents
gene transfer percentage [1]: 1.5%
effect on number/frequency of CIC structures [2]: significantly increased
average duration of CIC structures [2]: 6.04 h
time at which CIC structures were concentrated [2]: 9.2 to 15.3 h
average CIC structure duration ([3]; 100 μM Hygromycin B, 20 μM Actinomycin D, or combination, 1 focus field): 2.1 h
time at which CIC structures were concentrated ([3]; 100 μM Hygromycin B, 20 μM Actinomycin D, or combination): 2.9 to 5.1 h
effect on CIC structures (induction, frequency) [3]: induced

COc1cccc2c1C(=O)c1c(O)c3c(c(O)c1C2=O)C[C@@](O)(C(=O)CO)C[C@@H]3O[C@H]1C[C@H](N)[C@H](O)[C@H](C)O1 [Doxorubicin]
effect on gene transfer [1, 5]: inhibiting
effect on number/frequency of CIC structures [2]: most CIC structure formation; also recorded: significantly increased
average duration of CIC structures [2]: 11.5 h
time at which CIC structures were concentrated [2]: 13.6 to 25.1 h
effect on CIC structure duration [2]: significantly higher; also recorded: significantly increased

C/C1=C/C(=O)O[C@@H]2C[C@@H](CC[C@H](C)/C=C\CC1)O[C@@](O)([C@@H]1CSC(=O)N1)C2 [Latrunculin B]
concentration that resulted in the lowest percentage of gene transfer to RPE cells [1]: 3 µM
effect on gene transfer [1, 5]: significantly decreased
F-actin levels (F-actin): significantly decreased

COc1ccc(C2CC(c3ccccc3)=NN2c2ccc(S(N)(=O)=O)cc2)cc1 (centres unmarked) [ML141]
effect on gene transfer [1, 5]: decreased; also recorded: significant effect

Cc1cn([C@H]2C=C[C@@H](CO)O2)c(=O)[nH]c1=O [Stavudine]
IC50 ([1]; later used as positive control of the screen, read-out: IC50 as potential tangocytosis inhibitor): 1830 nM

C[C@@H](N)[C@H]1CC[C@H](C(=O)Nc2ccncc2)CC1 [Y27632]
effect on gene transfer [1, 5]: effect of ROCKs perturbation by RNA depletion was phenocopied
effect on cell entrapment (cell-in-cell structure formation) [4]: effect of ROCKs perturbation by RNA depletion was phenocopied
